Each structure is given as a SMILES string.

One experiment has as its system parasite. As to the kind of experiment: Parasite LDH growth assay (Parasite Assay). The experiment is classed as cell-based, Plasmodium falciparum. Particulars: Plasmodium falciparum, 72 h, ring stage parasites, 72 hours growth at 37° C., LDH readout of parasite growth. The protocol: Assessing Antiparasite Potency in a Parasite LDH Growth Assay (Parasite Assay) The parasite stock was maintained at 4% haematocrit in RPMI-Hepes media 30 buffered with sodium bicarbonate and supplemented with 5% heat inactivated human serum and 0.5% albumax. Approximately 42 hours prior to the potency assay being set up, parasites were synchronized with 5% sorbitol to select for ring stage parasites. On the day of assay set up, a blood smear of the parasite culture was Giemsa stained and counted. The parasitemia was 35 adjusted to 0.7% rings and the haematocrit was diluted to 2% in RPMI-Hepes media buffered with sodium bicarbonate and supplemented with 5% heat inactivated human serum and 0.5% albumax. 30 ul of diluted parasites are then added into 10 μl of media+compound in pre-prepared Greiner TC assay plates. Parasite assay plates were placed in gassed humidified boxes in single layer and allowed to incubate at 37° C. for 72 hours. After 72 hours growth, assay plates are sealed with parafilm and frozen flat, in single file at −80° C. overnight. On the following day, assay plates were allowed to thaw at room temperature for 4 hours to which an LDH assay was performed to measure parasite growth.
Take `CC[C@]12CCC/C=C/Cc3ccc4c(c3)OC(C)(C)C[C@@H]4NC(=O)c3ccc4c(c3)[C@@H](CCO4)N(C(=N)N1)C(=O)C2` [Example 11, (1R,5R,9E,20S)-5-ethyl-3-imino-18,18-dimethyl-17,27-dioxa-2,4,21-triazahexacyclo[21. 6.2.22,5.112,16.015, 20.026,30] tetratriaconta-9,12(32),13,15,23, 25,30-heptaene-22,34-dione]: a half-maximal effect (EC50) was put at 4.6 nM.
As to `CC[C@]12CCC/C=C/c3ccc4c(c3)[C@@H](NC(=O)c3ccc5c(c3)[C@@H](CCO5)N(C(=N)N1)C(=O)C2)[C@H](O)C4` [Example 5, (1R,5R,9E,16R, 17R)-5-ethyl-16-hydroxy-3-imino-24-oxa-2,4,18-triazahexacyclo[18. 6.2.22,5.211,14.013, 17.023,27] dotriaconta-9,11,13,20,22,27, 29-heptaene-19,32-dione], the 50% effective concentration (EC50) – broadly, the midpoint of the concentration-response curve – is 0.9 nM. This EC50 is about 5.1-fold lower than that of the compound before.
In turn, `CC[C@@]12CCCCc3ccc4c(c3)[C@H](CC(C)(C)O4)NC(=O)c3ccc4c(c3)[C@@H](CCO4)N(C(=N)N1)C(=O)C2` [Example 3B, (1R,5S,17S)-5-ethyl-3-imino-15,15-dimethyl-14,24-dioxa-2,4,18-triazahexacyclo[18. 6.2.22,5.210,13.012, 17.023,27] dotriaconta-10,12,20,22,27,29-hexaene-19,32-dione] came in with an EC50 of 270 nM.
Still for that read-out and setting: as for `CCC12CC/C=C/c3ccc4c(c3)[C@H](CC(C)(C)O4)NC(=O)c3ccc4c(c3)[C@@H](CCO4)N(C(=N)N1)C(=O)C2` (mixture of isomers) [Example 20, rac-(1R,8E,17S)-5-ethyl-3-imino-15,15-dimethyl-14,24-dioxa-2,4,18-triazahexacyclo[18. 6.2.22,5.210,13.012, 17.023,27] dotriaconta-8,10,12,20,22,27,29-heptaene-19,32-dione], the figure is 3.6 nM; as for `CC[C@]12CCC/C=C/c3ccc4c(c3)[C@H](CC(C)(C)O4)NC(=O)c3ccc4c(c3)[C@@H](CCO4)N(C(=N)N1)C(=O)C2` [Example 7, (1R,5R,9E,18S)-5-ethyl-3-imino-16,16-dimethyl-15,25-dioxa-2,4,19-triazahexacyclo[19. 6.2.22,5.211,14.013, 18.024,28] tritriaconta-9,11,13,21,23,28, 30-heptaene-20,33-dione], 0.9 nM.
Still for that read-out and setting: the figure for `CCC12CCCCC/C=C\c3ccc4c(c3)OC(C)(C)C[C@@H]4NC(=O)c3ccc4c(c3)[C@@H](CCO4)N(C(=N)N1)C(=O)C2` (racemic) [Example 23, rac-(1R,11Z,21S)-5-ethyl-3-imino-19,19-dimethyl-18,28-dioxa-2,4,22-triazahexacyclo[22. 6.2.22,5.113,17.016, 21.027,31] pentatriaconta-11,13(33),14,16,24, 26,31-heptaene-23,35-dione] is 7.5 nM.

Staying with this experiment, now noted: ring stage parasites, 72 hours growth at 37° C., LDH readout of parasite growth.
Regarding `CCC12CCCCCc3ccc4c(c3)[C@@H](NC(=O)c3ccc5c(c3)[C@@H]([C@H](COC)CO5)N(C(=N)N1)C(=O)C2)[C@H](O)C4` (single isomer, unassigned) [Example 15A], the EC50 worked out at 9.2 nM. In other words, the single-digit nanomolar range.
On the same count and under the same terms, the figure for `CCC12CCCCCCCc3ccc4c(c3)OC(C)(C)C[C@@H]4NC(=O)c3ccc4c(c3)[C@@H](CCO4)N(C(=N)N1)C(=O)C2` (racemic) [Example 24A, rac-(1R,21S)-5-ethyl-3-imino-19,19-dimethyl-18,28-dioxa-2,4,22-triazahexacyclo[22. 6.2.22,5.113,17.016, 21.027,31] pentatriaconta-13(33),14,16,24,26, 31-hexaene-23,35-dione] is 5.4 nM; for `COC[C@@H]1COc2ccc3cc2[C@@H]1N1C(=N)NC(C)(CCCCCc2ccc4c(c2)[C@H](CC(C)(C)O4)NC3=O)CC1=O` (mixture of isomers) [Example 25A, rac-(1R,18S,27R)-3-imino-27-(methoxymethyl)-5,16,16-trimethyl-15,25-dioxa-2,4,19-triazahexacyclo[19. 6.2.22,5.211,14.013, 18.024,28] tritriaconta-11,13,21,23,28,30-hexaene-20,33-dione] it is 23 nM; for `CCC12CCCCCCCc3ccc4c(c3)OC(C)(C)C[C@@H]4NC(=O)c3ccc4c(c3)[C@@H](CCO4)N(C(=N)N1)C(=O)C2` (racemic) [Example 24B, rac-(1R,21S)-5-ethyl-3-imino-19,19-dimethyl-18,28-dioxa-2,4,22-triazahexacyclo[22. 6.2.22,5.113,17.016, 21.027,31] pentatriaconta-13(33),14,16,24,26, 31-hexaene-23,35-dione] it is 2 nM.
Consider `CCC12CCC/C=C/c3ccc4c(c3)[C@H](CC(C)(C)O4)NC(=O)c3ccc4c(c3)[C@@H]([C@H](COC)CO4)N(C(=N)N1)C(=O)C2` (mixture of isomers) [Example 26B, rac-(1R,9E,18S,27R)-5-ethy1-3-imino-27-(methoxymethyl)-16,16-dimethyl-15,25-dioxa-2,4,19-triazahexacyclo[19. 6.2.22,5.211,14.013, 18.024,28] tritriaconta-9,11,13,21,23,28,30-heptaene-20,33-dione], for which it took 7.4 nM to reach a half-maximal effect (EC50).

Values taken from US20250066379A1, “ANTIMALARIAL AGENTS” (Merck Sharp & Dohme LLC, priority 2021, published 2025).
